Patent EP4644377A1, “LIPID COMPOUND FOR GENE DELIVERY AND LIPID NANOPARTICLE COMPRISING SAME” (NANJING CYBERNAX BIOMEDICAL TECHNOLOGY CO., LTD., priority 2022, dated 2024)

Tests used:
[1] = Particle size detection of LNP (Brookhaven NanoBrook Omni, DLS); format: physicochemical; conditions: LNPs after coating mRNA (luciferase)
Description: Step 1. Preparation of a lipid solution and a nucleic acid solution: unless otherwise specified, all aqueous solutions involved in examples were prepared from deionized water without nucleases. An ionizable lipid, a phospholipid (disaturated phosphatidylcholine (DSPC) or dioleoylphosphatidylethanolamine (DOPE)), cholesterol and a PEG lipid (DMG-PEG2000) were mixed in a molar ratio of 50/10/38.5/1.5 (containing DSPC, formulation 1) or 36.5/16/46.5/2.5 (containing DOPE, formulation 2) and dissolved into an ethanol solution. Meanwhile, a nucleic acid (a mass ratio of ionizable lipid/nucleic acid was 10/1) was dissolved into a citrate buffer solution of pH=3, so that a final volume ratio of the ethanol solution to the citrate solution was 1/3.
Step 2. Preparation of LNP by mixing the lipid solution with the nucleic acid solution: the lipid ethanol solution and the nucleic acid aqueous solution that were prepared in Step 1 were respectively put into a sterile syringe and placed in a Precision Nanosystem Ignite instrument, the extrusion flow speeds of the ethanol solution and the water phase solution were respectively set as 3 ml/min and 9 ml/min in instrument program settings. A microfluidic chip was inserted into the instrument and LNP preparation was initiated, and then a solution mixed by the chip was collected.
Step 2.1. Preparation of an LNP solution coating nucleic acid in a porous plate: a solution of an ionizable lipid, a phospholipid (DSPC or DOPE), cholesterol and a PEG lipid (DMG-PEG2000) in ethanol was added into each well of a 96-well deep plate, so that a molar ratio of four component lipids in each well was 50/10/38.5/1.5 (containing DSPC, formulation 1) or 36.5/16/46.5/2.5 (containing DOPE, formulation 2). Then, a citrate buffer solution (pH=3, the mass of nucleic acid added into each well was 1/10 that of the ionizable lipid in this well) that was three times as ethanol in volume and dissolved with a nucleic acid molecule was quickly added into the well plate through a multi-channel pipette or an automatic liquid dispensing system and rapidly mixed, so as to obtain the LNP solution coating nucleic acid.
Step 3. Purification of the LNP solution: the LNP solution collected in Step 2 or Step 2.1 was subjected to dialysis-concentration-filtration operations, so as to obtain a final LNP solution coating nucleic acid for subsequent testing.
The LNP solution coating nucleic acid obtained in Step 3 was diluted so that the final lipid concentration was between 0.01 mg/ml and 0.1 mg/ml. The diluted solution was added into a sample reservoir, and then subjected to particle size detection in a Brookhaven NanoBrook Omni instrument.

C57Bl/6 mice = assay: Luciferase mRNA delivery in mice, IVIS chemiluminescence; format: in vivo
Description: The animal experiments were reviewed and approved by the Ethics Committee of Zhejiang Medical College and the Ethics Committee of Zhejiang University of Technology. 6- to 8-week-old male C57Bl/6 mice were randomly grouped with 3 mice in each group. The mice in each group received a lipid nanoparticle coating mRNA expressing a luciferase via tail vein injection at a dose of 0.25 mg/kg mouse body weight (calculated by the mass of coated mRNA). […] The mRNA delivery effect of the lipid nanoparticle is quantitatively compared through a total chemiluminiscence quantity (Total Flux p/s) of a mouse whole body within unit time (shown in Table 5).
Table 13 and Table 14 show whole body chemiluminescent signals when LNPs (formulation 2) composed of the lipids in some examples deliver Flue mRNA in mice. The delivery dose of Flue mRNA was 0.25 mg/kg. 6 h after LNP injection, 150 mg/kg of D-luciferin was intraperitoneally injected into the mice, and then the whole body chemiluminescent signals were collected in the IVIS imaging system after 10 min. […]

[2] = LNPs (formulation 2), Flue mRNA 0.25 mg/kg, tail vein injection, whole body signal 6 h after LNP injection, 10 min after 150 mg/kg D-luciferin i.p.
[3] = LNP formulation 2 (SM102: formulation 1), luciferase mRNA 0.25 mg/kg, tail vein, C57Bl/6 mice, whole body signal 6 h after LNP, 10 min after D-luciferin 150 mg/kg i.p.

| PDI [1] | Particle size [1] [nm·days] | SMILES | Chemiluminescent signal (p/s) (C57Bl/6 mice; [2]) | Chemiluminescent signal (p/s) (C57Bl/6 mice; [3]) | delivery efficiency in mRNA mouse in vivo delivery (C57Bl/6 mice; result in words) |
| --- | --- | --- | --- | --- | --- |
| 0.19 | 204.79 ± 3.09 | CCCCC/C=C\C/C=C\CCCCCCCC(=O)N(CCN(C)CCO)C(C(=O)NCCCCCCCCCCCCCC)C(C)(C)C (stereo not shown) [Lipid 195] | – | 1.43E+09 | – |
| 0.18 | 178.88 ± 3.61 | CCCCC/C=C\C/C=C\CCCCCCCC(=O)N(CCCN(C)C)C(C(=O)NCCCCCCCC(=O)OC(CCCCCCCC)CCCCCCCC)C(C)(C)C (stereo not shown) [Lipid 175] | – | 7.07E+09 | high delivery efficiency |
| 0.14 | 234.57 ± 1.84 | CCCCCCCCCCCC(=O)N(CCCN(CC)CC)C(C(=O)NCCCCCCCC(=O)OC(CCCCCCCC)CCCCCCCC)C(C)(C)C (stereo not shown) [Lipid 237] | – | 3.86E+09 | – |
| 0.19 | 204.35 ± 3.72 | CCCCCCCCCCCC(=O)N(CCCN(C)CCCCO)C(C(=O)NCCCCCCCC(=O)OC(CCCCCCCC)CCCCCCCC)C(C)(C)C (stereo not shown) [Lipid 240] | – | 5.76E+08 | – |
| 0.19 | 188.99 ± 4.55 | CCCCCCCCCCCCCC(=O)N(CCCN(C)CCO)C(C(=O)NCCCCCCCCCCCC)C(C)(C)C (stereo not shown) [Lipid 189] | – | 3.32E+08 | – |
| 0.22 | 136.93 ± 2.95 | CCCCCCCCCCCCCCNC(=O)C(N(CCCN(CC)CC)C(=O)CCCCCCCCCCCCC)C(C)(C)C (stereo not shown) [Lipid 159] | – | 2.30E+09 | – |
| 0.27 | 261.64 ± 5.92 | CC/C=C\C/C=C\C/C=C\C/C=C\C/C=C\CCCC(=O)N(CCCN(CC)CC)C(C(=O)NCCCCCCCCCCCCCC)C(C)(C)C (stereo not shown) [Lipid 162] | – | 6.66E+09 | – |
| 0.17 | 200.94 ± 5.63 | CCCCCCCCCCCC(=O)N(CCCN(C)C)C(C(=O)NCCCOC(=O)CCCCCCCC)C(C)(C)C (stereo not shown) [Lipid 163] | – | 1.73E+09 | – |
| 0.19 | 207.34 ± 2.23 | CCCCCCCC/C=C\CCCCCCCCOC(=O)CCC(=O)N(CCCN(CC)CC)C(C(=O)NCCCC(=O)OCCCCCCCC)C(C)(C)C (stereo not shown) [Lipid 226] | – | 9.30E+09 | – |

The remaining lines, values behind:

| SMILES | PDI [1] | Particle size [1] [nm·days] | Chemiluminescent signal (p/s) (C57Bl/6 mice; [2]) | Chemiluminescent signal (p/s) (C57Bl/6 mice; [3]) | delivery efficiency in mRNA mouse in vivo delivery (C57Bl/6 mice; result in words) |
| --- | --- | --- | --- | --- | --- |
| CCCCCCCCC(CC)OC(=O)CCCCCCC(=O)N(CCCN(C)C)C(C(=O)NCCCCCCCC(=O)OC(CCCCCCCC)CCCCCCCC)C(C)(C)C (stereo not shown) [Lipid 402] | 0.25 | 84.3 ± 3.42 | 4.20E+10 | – | – |
| CCCCC/C=C\C/C=C\CCCCCCCC(=O)N(CCCN(C)C)C(C)C(=O)NCCCCCCCC(=O)OC(CCCCCCCC)CCCCCCCC (stereo not shown) [Lipid 949] | 0.19 | 115.8 ± 0.26 | 6.88E+05 | – | – |
| CCCCCCCCC(CCCCCCCC)OC(=O)CCCCCCCNC(=O)C(N(CCCN(C)C)C(=O)CCCCCCC(=O)OCC(C)CCCCCCC)C(C)(C)C (stereo not shown) [Lipid 420] | 0.22 | 110.3 ± 1.65 | 6.69E+09 | – | – |
| CCCCCCCC(C)COC(=O)CCCCCCCNC(=O)C(N(CCCN(C)C)C(=O)CCCCCCCCCC(=O)OC(CCCCCC)CCCCCC)C(C)(C)C (stereo not shown) [Lipid 409] | 0.25 | 95 ± 0.75 | 3.08E+10 | – | – |
| CCCCCCCCC(CCCCCC)C(=O)OCCCCCCC(=O)N(CCCN(C)C)C(C(=O)NCCCCCCCC(=O)OCC(C)CCCCCCC)C(C)(C)C (stereo not shown) [Lipid 445] | 0.24 | 94.7 ± 0.95 | 2.15E+09 | – | – |
| CCCCC/C=C\C/C=C\CCCCCCCC(=O)N(CCCN(C)C)C(C(=O)NCCCCCCCC(=O)OC(CCCCCCCC)CCCCCCCC)C(C)C (stereo not shown) [Lipid 942] | 0.25 | 135.8 ± 2.13 | 8.15E+08 | – | – |
| CCCCCCCCC(CCCCCC)COC(=O)CCCCCCC(=O)N(CCCN(C)C)C(C(=O)NCCCCCCCC(=O)OC(CC)CCCCCCCC)C(C)(C)C (stereo not shown) [Lipid 431] | 0.26 | 114 ± 2.51 | 5.11E+10 | – | – |
